For nine compounds, IC50 results are on record in ChEMBL document CHEMBL1155899, “Cucurbitane-type triterpenoids from the stems of momordica charantia” (J Nat Prod, 2008).

This test has as its system SK-HEP1. Briefly: Cytotoxicity against human SK-Hep1 cells by MTT assay. Format: functional, cell-based. In general terms: Tetrazolium assays rely on reduction of a dye to a coloured formazan, in cell work by metabolically active cells.
A word on the IC50: it is the concentration that inhibits the measured activity by half. Read a low IC50 as inhibition by little substance. The compound `CO[C@H]1C=C2[C@@H](CC[C@H](O)C2(C)C)[C@]2(C)CC[C@]3(C)[C@@H]([C@H](C)C/C=C/C(C)(C)O)CC[C@@]3(C)[C@H]12` yielded an IC50 of over 100 µM.
The value for `C[C@H](C/C=C/C(C)(C)O)[C@H]1CC[C@@]2(C)[C@@H]3[C@@H](O)C=C4[C@@H](CC[C@H](O)C4(C)C)[C@]3(C)CC[C@]12C` was over 100 µM; that for `CO[C@H]1C=C2[C@@H](CC[C@H](OC(C)=O)C2(C)C)[C@]2(C)CC[C@]3(C)[C@@H]([C@H](C)C/C=C/C(C)(C)O)CC[C@@]3(C)[C@H]12` was over 100 µM.
The result for `C[C@H](C/C=C/C(C)(C)O)[C@H]1CC[C@@]2(C)[C@@H]3C=CC4=C(CC[C@H](O)C4(C)C)[C@]3(C)CC[C@]12C` reads over 100 µM.
The result for `C[C@H](C/C=C/C(C)(C)O)[C@H]1CC[C@@]2(C)[C@@H]3[C@@H](O)C=C4[C@@H](CC[C@H](O)C4(C)C)[C@]3(C=O)CC[C@]12C` reads 98.3 µM; that for `COC(C)(C)/C=C/C[C@@H](C)[C@H]1CC[C@@]2(C)[C@@H]3[C@@H](O)C=C4[C@@H](CC[C@H](O)C4(C)C)[C@]3(C=O)CC[C@]12C`, 91.6 µM; that for `CO[C@H]1C=C2[C@@H](CC[C@H](O)C2(C)C)[C@]2(C)CC[C@]3(C)[C@@H]([C@H](C)C/C=C/C(C)(C)OC)CC[C@@]3(C)[C@H]12`, over 100 µM.
In the case of `CC(C)=CC(=O)C[C@@H](C)[C@H]1CC[C@@]2(C)[C@@H]3C(=O)C=C4[C@@H](CCC(=O)C4(C)C)[C@]3(C)CC[C@]12C`, the IC50 is over 100 µM.
Regarding `COc1cc([C@@H]2c3cc4c(cc3[C@@H](O[C@@H]3O[C@@H]5CO[C@@H](C)O[C@H]5[C@H](O)[C@H]3O)[C@H]3COC(=O)[C@H]23)OCO4)cc(OC)c1O` [ETOPOSIDE], it took 49.6 µM to reach half-maximal inhibition (IC50).
